Each structure is given as a SMILES string.

The target in the assay is T1, HCMV polymerase (Human cytomegalovirus, UniProt P08546).
T1 construct: made in house; host or cells: SF-9 insect cells infected with recombinant baculovirus
T1 sequence (P08546 whole entry): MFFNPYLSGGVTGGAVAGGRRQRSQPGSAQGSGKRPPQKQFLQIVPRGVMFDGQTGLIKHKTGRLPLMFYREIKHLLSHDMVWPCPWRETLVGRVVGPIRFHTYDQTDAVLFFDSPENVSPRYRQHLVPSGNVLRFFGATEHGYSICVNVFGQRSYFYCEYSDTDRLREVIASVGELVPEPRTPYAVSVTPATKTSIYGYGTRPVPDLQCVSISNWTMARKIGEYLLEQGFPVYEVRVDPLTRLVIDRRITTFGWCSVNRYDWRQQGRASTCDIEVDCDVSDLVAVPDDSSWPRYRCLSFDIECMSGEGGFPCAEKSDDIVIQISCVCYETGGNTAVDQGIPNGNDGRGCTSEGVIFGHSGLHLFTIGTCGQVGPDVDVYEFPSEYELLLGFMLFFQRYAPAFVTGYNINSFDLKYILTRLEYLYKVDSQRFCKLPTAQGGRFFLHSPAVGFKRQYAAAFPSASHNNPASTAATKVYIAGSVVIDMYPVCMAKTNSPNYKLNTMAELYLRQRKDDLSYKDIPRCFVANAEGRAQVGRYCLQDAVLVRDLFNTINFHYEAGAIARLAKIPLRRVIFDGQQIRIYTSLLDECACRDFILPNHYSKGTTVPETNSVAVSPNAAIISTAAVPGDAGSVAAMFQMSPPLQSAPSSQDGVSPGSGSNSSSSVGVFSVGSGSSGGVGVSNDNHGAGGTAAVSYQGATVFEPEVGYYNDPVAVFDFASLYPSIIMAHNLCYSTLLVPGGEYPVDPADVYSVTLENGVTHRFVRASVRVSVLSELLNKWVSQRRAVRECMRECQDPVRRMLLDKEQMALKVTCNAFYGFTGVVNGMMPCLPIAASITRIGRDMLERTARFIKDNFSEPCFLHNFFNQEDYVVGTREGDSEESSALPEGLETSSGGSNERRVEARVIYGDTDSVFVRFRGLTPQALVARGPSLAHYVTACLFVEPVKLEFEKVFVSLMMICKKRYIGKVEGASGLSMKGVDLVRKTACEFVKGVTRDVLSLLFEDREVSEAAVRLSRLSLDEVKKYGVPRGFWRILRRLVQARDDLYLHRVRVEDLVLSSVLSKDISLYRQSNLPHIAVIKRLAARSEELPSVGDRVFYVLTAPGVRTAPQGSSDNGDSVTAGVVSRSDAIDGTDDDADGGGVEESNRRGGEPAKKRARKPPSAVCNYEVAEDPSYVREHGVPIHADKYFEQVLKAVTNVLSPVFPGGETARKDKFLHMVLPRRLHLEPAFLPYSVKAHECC
Briefly: HCMV polymerase assay (scintillation proximity assay). The assay is classed as biochemical. The settings on record: percentage of inhibition at 25 μM concentration in CMV polymerase assay. Put shortly: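 Values are percent inhibition at 25 μM, measured by scintillation proximity after capture of biotinylated poly(dA)-oligo(dT) (6 nM) extended with 90 nM 3H-dTTP. Recombinant SF-9-derived enzyme reacted 30 min at 25 or 37 °C in HEPES pH 7.5/KCl/MgCl2/BSA buffer, ±2 mM CHAPS, before EDTA termination.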
On to `O=C(CCCCCl)Nc1nnc(NCC2CCCCC2)s1` [compound 315, 5-chloro-N-{5-[(cyclohexylmethyl)amino]-1,3,4-thiadiazol-2-yl}pentanamide], for which testing at 25 µM gave an inhibition of 33.8%. The figure for `O=C(CCCCCl)Nc1nnc(NC2CCCCCC2)s1` [compound 316, 5-chloro-N-[5-(cycloheptylamino)-1,3,4-thiadiazol-2-yl]pentanamide] is 33.6%; for `CC(C)c1cc(C(C)C)c(C(=O)Nc2nnc(NCCc3c[nH]cn3)s2)c(C(C)C)c1` [compound 317, N-(5-{[2-(1H-imidazol-4-yl)ethyl]amino}-1,3,4-thiadiazol-2-yl)-2,4,6-triisopropylbenzamide] it is 33.6%; for `CCOc1ccc2ccccc2c1C(=O)Nc1nnc(NCCSCC)s1` [compound 318, 2-ethoxy-N-(5-{[2-(ethylsulfanyl)ethyl]amino}-1,3,4-thiadiazol-2-yl)-1-naphthamide] it is 33.6%. In turn, `CC(C)(C)CNc1nnc(NC(=O)/C=C/c2ccccc2Cl)s1` [compound 319, (E)-3-(2-chlorophenyl)-N-[5-(neopentylamino)-1,3,4-thiadiazol-2-yl]-2-propenamide] showed an inhibition at 25 µM of 33.5%. The figure for `CC1(C)C2CC[C@@H](CNc3nnc(NC(=O)/C=C/c4ccccc4Cl)s3)C1C2` (stereo partly drawn) [compound 320, (E)-3-(2-chlorophenyl)-N-[5-({[(2R)-6,6-dimethylbicyclo[3.1.1]hept-2-yl]methyl}amino)-1,3,4-thiadiazol-2-yl]-2-propenamide] is 33.5%; for `O=C(CCCCCl)Nc1nnc(NCc2ccc(F)cc2)s1` [compound 321, 5-chloro-N-{5-[(4-fluorobenzyl)amino]-1,3,4-thiadiazol-2-yl}pentanamide] it is 33.2%; for `O=C(/C=C/c1ccccc1Cl)Nc1nnc(NCCSc2ccccc2)s1` [compound 322, (E)-3-(2-chlorophenyl)-N-(5-{[2-(phenylsulfanyl)ethyl]amino}-1,3,4-thiadiazol-2-yl)-2-propenamide] it is 33.2%. For `Cc1ccc(C(=O)Nc2nnc(NC3CCCCCC3)s2)cc1` [compound 323, N-[5-(cycloheptylamino)-1,3,4-thiadiazol-2-yl]-4-methylbenzamide], the inhibition at 25 µM is 33%. With `O=C(Nc1nnc(NCCCn2ccnc2)s1)c1ccc(I)cc1` [compound 324, N-(5-{[3-(1H-imidazol-1-yl)propyl]amino}-1,3,4-thiadiazol-2-yl)-4-iodobenzamide] the figure was 32.9%; with `O=C(CCCCCl)Nc1nnc(NCCCN2CCCC2=O)s1` [compound 325, 5-chloro-N-(5-{[3-(2-oxo-1-pyrrolidinyl)propyl]amino}-1,3,4-thiadiazol-2-yl)pentanamide], 32.8%; with `O=C(/C=C/c1ccccc1)Nc1nnc(NCc2ccc(F)cc2)s1` [compound 326, (E)-N-{5-[(4-fluorobenzyl)amino]-1,3,4-thiadiazol-2-yl}-3-phenyl-2-propenamide], 32.7%. With `COc1ccccc1C(=O)Nc1nnc(NCCc2ccccc2)s1` [compound 327, 2-methoxy-N-[5-(phenethylamino)-1,3,4-thiadiazol-2-yl]benzamide] the figure was 32.5%. With `CCOc1ccc2ccccc2c1C(=O)Nc1nnc(NCCc2ccc(S(N)(=O)=O)cc2)s1` [compound 328, N-(5-{[4-(aminosulfonyl)phenethyl]amino}-1,3,4-thiadiazol-2-yl)-2-ethoxy-1-naphthamide] the figure was 32.4%; with `O=C(/C=C/c1ccccc1)Nc1nnc(NCc2cccc3ccccc23)s1` [compound 329, (E)-N-{5-[(1-naphthylmethyl)amino]-1,3,4-thiadiazol-2-yl}-3-phenyl-2-propenamide], 32.4%.

Compound `O=C(Nc1nnc(NCCc2c[nH]cn2)s1)c1cc2ccccc2s1` [compound 330] registered an inhibition at 25 µM of 32.2%. As for `O=C(/C=C/c1ccccc1)Nc1nnc(NCCC(c2ccccc2)c2ccccc2)s1` [compound 331, (E)-N-{5-[(3,3-diphenylpropyl)amino]-1,3,4-thiadiazol-2-yl}-3-phenyl-2-propenamide], at 25 µM the inhibition was 32.1%. With `CC(=O)NCCNc1nnc(NC(=O)c2c(C(C)C)cc(C(C)C)cc2C(C)C)s1` [compound 332, N-(5-{[2-(acetylamino)ethyl]amino}-1,3,4-thiadiazol-2-yl)-2,4,6-triisopropylbenzamide] the figure was 32%; with `O=C(/C=C/c1ccccc1)Nc1nnc(NCc2ccc(Cl)c(Cl)c2)s1` [compound 333, (E)-N-{5-[(3,4-dichlorobenzyl)amino]-1,3,4-thiadiazol-2-yl}-3-phenyl-2-propenamide], 31.9%; with `COc1ccccc1C(=O)Nc1nnc(NCc2cccc3ccccc23)s1` [compound 334, 2-methoxy-N-{5-[(1-naphthylmethyl)amino]-1,3,4-thiadiazol-2-yl}benzamide], 31.8%. The figure for `N#Cc1ccc(C(=O)Nc2nnc(NCCc3ccc(S(N)(=O)=O)cc3)s2)cc1` [compound 335, N-(5-{[4-(aminosulfonyl)phenethyl]amino}-1,3,4-thiadiazol-2-yl)-4-cyanobenzamide] is 31.7%; for `CCCCCCCC/C=C/CCCCCCCC(=O)Nc1nnc(NCCc2ccc(S(N)(=O)=O)cc2)s1` [compound 336, (E)-N-(5-{[4-(aminosulfonyl)phenethyl]amino}-1,3,4-thiadiazol-2-yl)-9-octadecenamide] it is 31.6%; for `O=C(Nc1nnc(NCCc2cccs2)s1)c1cccc([N+](=O)[O-])c1` [compound 337, 3-nitro-N-(5-{[2-(2-thienyl)ethyl]amino}-1,3,4-thiadiazol-2-yl)benzamide] it is 31.6%.

As for `CC(C)(C)OC(=O)CCNc1nnc(NC(=O)c2c(Cl)cccc2Cl)s1` [compound 338, tert-butyl 3-({5-[(2,6-dichlorobenzoyl)amino]-1,3,4-thiadiazol-2-yl}amino)propanoate], 25 µM produced 31.6% inhibition. The figure for `O=C(Nc1nnc(NCCNc2ccccc2)s1)c1ccc(I)cc1` [compound 339, N-{5-[(2-anilinoethyl)amino]-1,3,4-thiadiazol-2-yl}-4-iodobenzamide] is 31.5%; for `CC(C)(C)OC(=O)CCNc1nnc(NC(=O)c2ccc3c(c2)C(=O)OC3=O)s1` [compound 340, tert-butyl 3-[(5-{[(1,3-dioxo-1,3-dihydro-2-benzofuran-5-yl)carbonyl]amino}-1,3,4-thiadiazol-2-yl)amino]propanoate] it is 31.5%; for `O=C(Nc1nnc(NCc2ccco2)s1)c1ccc(I)cc1` [compound 341, N-{5-[(2-furylmethyl)amino]-1,3,4-thiadiazol-2-yl}-4-iodobenzamide] it is 31.3%. The figure for `CCCCCCCCCCCNc1nnc(NC(=O)/C=C/c2ccccc2)s1` [compound 342, (E)-3-phenyl-N-[5-(undecylamino)-1,3,4-thiadiazol-2-yl]-2-propenamide] is 31.2%; for `O=C(Nc1nnc(NC2CCCc3ccccc32)s1)c1cc2ccccc2s1` (stereo not drawn) [compound 343, N-[5-(1,2,3,4-tetrahydro-1-naphthalenylamino)-1,3,4-thiadiazol-2-yl]-1-benzothiophene-2-carboxamide] it is 31.2%. The figure for `CCOC(=O)N1CCC(Nc2nnc(NC(=O)/C=C/c3ccccc3Cl)s2)CC1` [compound 344] is 31.1%; for `N#Cc1ccc(C(=O)Nc2nnc(NCCc3ccccc3)s2)cc1` [compound 345, 4-cyano-N-[5-(phenethylamino)-1,3,4-thiadiazol-2-yl]benzamide] it is 30.9%; for `O=C(CCCCCl)Nc1nnc(NCCc2c[nH]c3ccccc23)s1` [compound 346, 5-chloro-N-(5-{[2-(1H-indol-3-yl)ethyl]amino}-1,3,4-thiadiazol-2-yl)pentanamide] it is 30.7%. Consider `O=C(Nc1nnc(NC2CCCc3ccccc32)s1)c1cccc([N+](=O)[O-])c1` (stereo not drawn) [compound 347, 3-nitro-N-[5-(1,2,3,4-tetrahydro-1-naphthalenylamino)-1,3,4-thiadiazol-2-yl]benzamide], for which the inhibition at 25 µM stood at 30.6%.

In the case of `COc1ccccc1C(=O)Nc1nnc(NCc2ccc(F)cc2)s1` [compound 348, N-{5-[(4-fluorobenzyl)amino]-1,3,4-thiadiazol-2-yl}-2-methoxybenzamide], at 25 µM the inhibition was 30.4%. With `O=C(Nc1nnc(NCc2ccco2)s1)c1cc2ccccc2s1` [compound 349, N-{5-[(2-furylmethyl)amino]-1,3,4-thiadiazol-2-yl}-1-benzothiophene-2-carboxamide] the figure was 30.3%; with `O=C(Nc1nnc(NCc2ccc(Cl)c(Cl)c2)s1)c1ccc([N+](=O)[O-])o1` [compound 350, N-{5-[(3,4-dichlorobenzyl)amino]-1,3,4-thiadiazol-2-yl}-5-nitro-2-furamide], 30.3%. The compound `O=C(Nc1nnc(NCCc2c[nH]c3ccccc23)s1)c1ccc(Br)cc1` [compound 351, 4-bromo-N-(5-{[2-(1H-indol-3-yl)ethyl]amino}-1,3,4-thiadiazol-2-yl)benzamide] came in with an inhibition at 25 µM of 30.3%. The figure for `O=C(/C=C/c1ccccc1Cl)Nc1nnc(NCc2ccncc2)s1` [compound 352, (E)-3-(2-chlorophenyl)-N-[5-[(4-pyridinylmethyl)amino]-1,3,4-thiadiazol-2-yl}-2-propenamide] is 30.2%; for `O=C(/C=C/c1ccccc1Cl)Nc1nnc(NC2CC2)s1` [compound 353, (E)-3-(2-chlorophenyl)-N-[5-(cyclopropylamino)-1,3,4-thiadiazol-2-yl]-2-propenamide] it is 30.2%.

For the origin of these results see US6150385A, “1,3,4-thiadiazoles useful for the treatment of CMV infections” (Pharmacia & Upjohn Company, priority 1999, dated 2000).
